Test results as given in patent publication US20220000887A1, “REPURPOSED ANTIBIOTICS FOR NON-NUCLEAR GENOTOXIC CHEMOTHERAPY AND PHARMACEUTICAL COMPOSITION FOR ANTI-CANCER CONTAINING THE SAME” (Korea University Research and Business Foundation, priority 2019, published 2022).
Values joined by “and” are separate entries in the source; they are usually repeats but may differ in a detail not shown here. Equal values may be shown once. “Also recorded” adds a separate entry of the source. Read-outs that look alike come from different tables or passages of the source.

Legend:
[1] = test system: nuclear DNA and mitochondrial DNA; assay: Damage to nuclear DNA and mitochondrial DNA (FIG. 8)
Description: (§2) RNA was extracted from each sample using TRIzol solution. cDNA synthesized from the isolated RNA or intracellular genomic DNA extracted using a genomic DNA isolation kit was used for real-time polymerase chain reaction (PCR).
(§3) The real-time PCR data were normalized by the expression of glyceraldehyde-3-phosphate dehydrogenase (GAPDH). Relative expression levels were expressed as fold changes over the control. The results (mean±SE) were obtained in triplicate and a p value <0.05 was taken to be statistically significant.

[2] = test system: SW620 (colon cancer cells); assay: Cell viability analysis (LDH assay), SW620; type: cell-based, human; details: FIG. 3
Procedure: (§1) Particularly, the inventive anticancer drugs had IC50 values of 23.77 μM and 27.05 μM against A549 and SW620, respectively.

[3] = test system: PC3 (prostate cancer cells); assay: Cell viability analysis (LDH assay), PC3; type: cell-based, human; details: FIG. 3
Procedure: as §1

[4] = test system: DU145 (prostate cancer cells); assay: Cell viability analysis (LDH assay), DU145; type: cell-based, human; details: FIG. 3
Procedure: as §1

A549 (lung cancer cells) = assay: Cell viability analysis (LDH assay), A549; type: cell-based, human; details: FIG. 3
Procedure: as §1

[5] = test system: MDA-MB-231 metastatic breast cancer cells; assay: Cell viability analysis (LDH assay), MDA-MB-231; details: for apoptotic effect on MDA-MB-231 cells: 48 h treatment
MDA-MB-231 cells [6] = assay: Mitochondrial membrane potential measurement (JC-1 assay); type: cell-based, human; details: 10 μM, 0, 6, 12, 24 h, FIG. 7
Procedure: Mitochondrial membrane potential differences were measured. To this end, the MDA-MB-231 cells were treated with 10 μM Ester MT-CFX for different periods of time (0, 6, 12, and 24 h) and cultured for indicated periods of time. Cells were harvested, washed once with ice-cold PBS, and cultured with […] 5,5′,6,6′-tetrachloro-1,1′,3,3′-tetraethyl-benzimidazolyl carbocyanine chloride (JC-1) at 37° C. for 20 min. The JC-1 stained cells were centrifuged at 1,300 g for 3 min and washed twice with ice-cold PBS. Mitochondrial membrane potentials of JC-1 monomer (green channel) and aggregate (red channel) were measured in different wavelength bands.

[7] = test system: nuclear and mitochondrial DNA; assay: Real-time PCR for nuclear and mitochondrial DNA damage lesions (FIG. 11); type: cell-based
Description: as §2, §3

MDA-MB-231 cells [8] = assay: FACS measurement of Annexin-V positive apoptotic cells; type: cell-based, human; details: 10 μM, 0, 6, 12, 24 h, Annexin V assay, FIG. 7
Procedure: Annexin-V positive apoptotic cells were analyzed by flow cytometry. To this end, the MDA-MB-231 cells were treated with 10 μM Ester MT-CFX for different periods of time (0, 6, 12, and 24 h) and cultured for indicated periods of time. Cells were harvested, washed twice with ice-cold PBS, placed in BD FACS tubes (10^6/mL), and cultured with 10 μg/mL annexin V in PBS containing 10% FBS at room temperature for 30 min. Subsequently, cells were washed with ice-cold PBS and annexin V fluorescence was measured in the FL-1 channel using a FACSCalibur flow cytometer (BD, USA).

MDA-MB-231 cells [9] = assay: Reactive oxidative species (ROS) measurement (Amplex Red, CM-H2DCFDA); type: cell-based, human; details: 10 μM, 48 h, FIG. 4
Procedure: The activity of hydrogen peroxide (H2O2) produced in cells was evaluated by detection with Amplex® Red reagent (10-acetyl-3,7-dihydroxyphenoxazine; Thermo Fisher scientific). Here, Amplex® Red reagent reacts with H2O2 in a stoichiometric ratio of 1:1 in the presence of peroxidase in cells to produce resorufin as a red fluorescent product. The fluorescence of resorufin can be analyzed at excitation and emission wavelengths of 571 nm and 581 nm, respectively. The MDA-MB-231 cell line was seeded into a 96-well plate and treated with 10 μM Ester MT-CFX for 48 h. Thereafter, the amount of hydrogen peroxide was measured. A reaction mixture of 50 μM Amplex® Red reagent and 0.1 U/mL HRP was prepared in Krebs-Ringer phosphate buffer (145 mM NaCl, 5.7 mM sodium phosphate, 4.86 mM KCl, 0.54 mM CaCl2, 1.22 mM MgSO4, 5.5 mM glucose, pH 7.35). 100 μL of the reaction mixture was added to each plate well, followed by incubation at 37° C. for 10 min. The brightness of fluorescence was measured at 530-560 nm excitation and 590 nm emission wavelengths using a microplate reader. The MDA-MB-231 cell line was seeded into a confocal dish. […] The fluorescence of reactive oxygen species produced in cells was imaged by confocal laser scanning microscopy at 492-495 nm excitation and 517-527 nm emission wavelengths.

[10] = test system: mitochondrial DNA synthesis; assay: Mitochondrial DNA synthesis (FIG. 5); type: cell-based
Description: as §2, §3

MDA-MB-231 xenograft = assay: In vivo mouse xenograft model; details: intravenous three times a week, 12 weeks, BALB/c-nu-nu mice
Procedure: Five-week-old immunodeficient male BALB/c-nu-nu mice (Orient bio, Korea) weighing between 18-20 g were used. The animals were bred and housed in a facility maintaining a humidity of 30-40% and a temperature of 22±1° C. on a 12-h light/dark cycle. All animal experiments were approved by the Ethics Committee for Animal Studies at Korea University. Animals were treated in accordance with the protocol approved by the Ethics Committee.
MDA-MB-231 cells (5×10^6 cells) were injected subcutaneously into 6-week-old immunodeficient BALB/c-nu-nu mice weighing between 18-20 g to establish tumor-bearing mouse models. […] The lengths of the long and short axes of tumors were measured weekly. 12 weeks after the first injection of each compound, the mice were sacrificed and tumor samples were collected for further analysis. […] Each asterisk (*) indicates a significant difference to the corresponding control.

[11] = test system: nuclear DNA and mitochondrial DNA
Description: as §2, §3

[12] = test system: mitochondrial genomic DNA; assay: Taq1 assay for damage to mitochondrial genomic DNA (FIG. 10); type: cell-based

## COc1cccc2c1C(=O)c1c(O)c3c(c(O)c1C2=O)C[C@@](O)(C(=O)CO)C[C@@H]3O[C@H]1C[C@H](N)[C@H](O)[C@H](C)O1 [doxorubicin, reference compound]
[1]
  toxicity to nuclear genes: strong toxicity to nuclear genes

## O=C(NCCCCCC[P+](c1ccccc1)(c1ccccc1)c1ccccc1)c1cn(C2CC2)c2cc(N3CCNCC3)c(F)cc2c1=O.[Cl-] [Amide Mt-CFX]
[2]
  apoptotic effects on SW620: apoptotic effects
[3]
  apoptotic effects on PC3: apoptotic effects
[4]
  apoptotic effects on DU145: apoptotic effects
A549 (lung cancer cells)
  apoptotic effects on A549: apoptotic effects
[5]; LDH assay
  apoptotic effect on MDA-MB-231 cells: enhanced apoptotic effect; also recorded: apoptotic effects

## O=C(O)c1cn(C2CC2)c2cc(N3CCNCC3)c(F)cc2c1=O [ciprofloxacin, reference compound]
[5]; LDH assay
  apoptotic effect on MDA-MB-231 cells: little or no apoptotic effect

## Cl.O=C(OCCCCCC[P+](c1ccccc1)(c1ccccc1)c1ccccc1)c1cn(C2CC2)c2cc(N3CCNCC3)c(F)cc2c1=O.[Cl-] [Ester Mt-CFX]
MDA-MB-231 cells [6]
  mitochondrial membrane potential differences: reduction of mitochondrial membrane potential differences
[7]
  mitochondrial mutations (DNA damage lesions): induced mitochondrial mutations
[2]
  apoptotic effects on SW620: apoptotic effects
MDA-MB-231 cells [8]
  apoptosis over time: occurrence of apoptosis over time
MDA-MB-231 cells [9]
  production of reactive oxygen species: reactive oxygen species are produced
[3]
  apoptotic effects on PC3: apoptotic effects
[10]
  mitochondrial DNA synthesis: inhibition of mitochondrial DNA synthesis
[4]
  apoptotic effects on DU145: apoptotic effects
A549 (lung cancer cells)
  apoptotic effects on A549: apoptotic effects
MDA-MB-231 xenograft
  cancer volume compared to control: significant reduction in cancer volume
[1]
  toxicity to mitochondrial genes: selective toxicity to mitochondrial genes
[5]; LDH assay
  apoptotic effect on MDA-MB-231 cells: strong apoptotic effect; also recorded: apoptotic effects
[5]; MDA-MB-231, 48 h treatment, LDH assay
  IC50: ~15 µM and 20 to 30 µM
[5]; MDA-MB-231, ratio of IC50 values
  apoptotic activity against the cancer cells, fold higher than that of ciprofloxacin: ~55,000 fold
[11]
  toxicity to nuclear genes: no toxicity to nuclear genes
[12]
  mitochondria targeting (damage to mitochondrial genomic DNA): targeted mitochondria
